The values that follow come from patent publication US4521413A, “Cephem compounds” (Fujisawa Pharmaceutical Co., Ltd., priority 1981, dated 1985).

Molecules are shown by their SMILES. Converted amounts (≈) assume the structure as drawn.

The subject of experiment [1] is B. subtilis ATCC 6633. Nature of the experiment: Minimal inhibitory concentration (MIC), agar streak test on heart infusion agar. The class given is cell-based. The conditions noted are these: Bacillus subtilis, ATCC6633, 37° C. for 20 hours, 10^8 viable cells per ml. As to the method: (§1) One loopful of an overnight culture of each test strain in Trypticase-soy broth (10^8 viable cells per ml.) was streaked on heart infusion agar (HI-agar) containing graded concentrations of antibiotics, and the minimal inhibitory concentration (MIC) was expressed in terms of μg/ml after incubation at 37° C. for 20 hours.

The subject of experiment [2] is S. marcescens 35. The experiment is described as above. The class given is cell-based. The conditions noted are these: Serratia marcescens, 37° C. for 20 hours, 10^8 viable cells per ml. As to the method: as §1

Turning to `CCO/N=C(\C(=O)NC1C(=O)N2C(C(=O)[O-])=C(C[n+]3cccc(NC)c3)CSC12)c1nsc(N)n1` (stereo not drawn) [Test Compound (1), 7-[2-Ethoxyimino-2-(5-amino-1,2,4,-thiadiazol-3-yl)acetamido]-3-(3-methylamino-1-pyridiniomethyl)-3-cephem-4-carboxylate (syn isomer)], the MIC in experiment [1] was 0.78 µg/mL (≈ 1.5 µM); in experiment [2], 1.56 µg/mL (≈ 3.01 µM).
The like results for `CCO/N=C(\C(=O)NC1C(=O)N2C(C(=O)[O-])=C(C[n+]3cccc(N(C)C)c3)CSC12)c1nsc(N)n1` (stereo not drawn) [Test Compound (2), 7-[2-Ethoxyimino-2-(5-amino-1,2,4-thiadiazol-3-yl)acetamido]-3-(3-dimethylamino-1-pyridiniomethyl)-3-cephem-4-carboxylate (syn isomer)] were, in that order, 0.39 µg/mL (≈ 0.732 µM) and 1.56 µg/mL (≈ 2.93 µM).
The matching figures for `CCO/N=C(\C(=O)NC1C(=O)N2C(C(=O)[O-])=C(C[n+]3cccc(OC)c3)CSC12)c1nsc(N)n1` (stereo not drawn) [Test Compound (3), 7-[2-Ethoxyimino-2-(5-amino-1,2,4-thiadiazol-3-yl)acetamido]-3-(3-methoxy-1-pyridiniomethyl)-3-cephem-4-carboxylate (syn isomer)]: 0.78 µg/mL (≈ 1.5 µM) and 1.56 µg/mL (≈ 3 µM).
